Measured values from ChEMBL document CHEMBL4007467, “Effects of 6-paradol, an unsaturated ketone from gingers, on cytochrome P450-mediated drug metabolism” (Bioorg Med Chem Lett, 2017).

What was measured:
Format in all cases: ADME
[1] = biological target: T1, CYP2D6 (Homo sapiens, UniProt P10635); test: Inhibition of CYP2D6 in human liver microsomes assessed as enzyme-mediated metabolite formation at 0.3 uM using dextromethorphan as substrate incubated for 5 mins followed by NADPH addition measured after 30 mins by LC-MS/MS analysis relative to control; set-up: scale not given: the % may be the effect or the level left; settings: probe dextromethorphan, read-out: Activity
T1 sequence (P10635 whole entry): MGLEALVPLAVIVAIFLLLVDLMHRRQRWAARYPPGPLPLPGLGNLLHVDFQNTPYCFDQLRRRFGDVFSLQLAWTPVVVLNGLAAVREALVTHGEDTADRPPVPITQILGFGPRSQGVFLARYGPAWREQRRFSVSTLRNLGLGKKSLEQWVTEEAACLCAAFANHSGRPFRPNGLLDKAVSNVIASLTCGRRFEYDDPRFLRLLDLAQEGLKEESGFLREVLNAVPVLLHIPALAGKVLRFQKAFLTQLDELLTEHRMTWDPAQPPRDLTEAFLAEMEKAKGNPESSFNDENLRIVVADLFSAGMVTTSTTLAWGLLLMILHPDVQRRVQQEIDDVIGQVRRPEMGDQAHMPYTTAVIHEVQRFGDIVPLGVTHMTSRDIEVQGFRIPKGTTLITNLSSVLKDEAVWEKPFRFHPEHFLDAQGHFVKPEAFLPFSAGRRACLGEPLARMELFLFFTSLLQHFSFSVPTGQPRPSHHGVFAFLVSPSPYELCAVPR

[2] = biological target: T2, CYP3A4 (Homo sapiens, UniProt P08684); test: Inhibition of CYP3A4 in human liver microsomes assessed as enzyme-mediated metabolite formation at 3 uM using midazolam as substrate incubated for 5 mins followed by NADPH addition measured after 30 mins by LC-MS/MS analysis relative to control; set-up: scale not given: the % may be the effect or the level left; settings: probe midazolam, read-out: Activity
T2 sequence (P08684 whole entry): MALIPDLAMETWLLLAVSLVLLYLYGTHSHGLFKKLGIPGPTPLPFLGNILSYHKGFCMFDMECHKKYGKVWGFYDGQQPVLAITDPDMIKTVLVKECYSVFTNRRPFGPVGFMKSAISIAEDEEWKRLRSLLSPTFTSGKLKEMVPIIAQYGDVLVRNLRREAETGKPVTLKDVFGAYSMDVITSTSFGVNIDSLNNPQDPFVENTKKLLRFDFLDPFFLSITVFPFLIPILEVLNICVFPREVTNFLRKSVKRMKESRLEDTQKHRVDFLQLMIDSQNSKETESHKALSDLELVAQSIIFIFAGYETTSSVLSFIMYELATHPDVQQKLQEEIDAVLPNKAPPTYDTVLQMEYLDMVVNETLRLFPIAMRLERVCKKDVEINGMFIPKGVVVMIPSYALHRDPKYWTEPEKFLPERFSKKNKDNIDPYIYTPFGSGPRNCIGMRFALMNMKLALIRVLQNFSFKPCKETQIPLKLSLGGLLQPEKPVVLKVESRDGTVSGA

[3] = biological target: CYP2C19 (Homo sapiens, UniProt P33261); test: Inhibition of CYP2C19 in human liver microsomes assessed as enzyme-mediated metabolite formation at 3 uM using (S)-mephenytoin as substrate preincubated for 20 mins followed by substrate addition measured after 30 mins in presence of NADPH by LC-MS/MS analysis relative to control; set-up: scale not given: the % may be the effect or the level left; settings: probe (S)-mephenytoin, read-out: Activity
Sequence of CYP2C19 (P33261 whole entry): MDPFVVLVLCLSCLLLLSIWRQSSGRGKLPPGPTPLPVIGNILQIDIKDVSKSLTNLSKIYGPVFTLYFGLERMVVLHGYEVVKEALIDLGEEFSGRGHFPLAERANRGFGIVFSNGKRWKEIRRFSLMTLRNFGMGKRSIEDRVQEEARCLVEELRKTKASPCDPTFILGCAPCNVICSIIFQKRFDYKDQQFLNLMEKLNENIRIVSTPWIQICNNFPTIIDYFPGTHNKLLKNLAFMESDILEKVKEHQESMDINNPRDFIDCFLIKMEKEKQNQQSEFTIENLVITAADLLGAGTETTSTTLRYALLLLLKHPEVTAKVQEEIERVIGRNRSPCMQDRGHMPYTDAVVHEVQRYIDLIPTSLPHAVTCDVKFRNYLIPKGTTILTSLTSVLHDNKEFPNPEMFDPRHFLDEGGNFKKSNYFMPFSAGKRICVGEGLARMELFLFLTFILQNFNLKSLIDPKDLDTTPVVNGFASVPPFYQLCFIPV

[4] = biological target: T3, Cytochrome P450 2B6 (Homo sapiens, UniProt P20813); test: Inhibition of human CYP2B6 using bupropion as substrate incubated for 5 mins followed by NADPH addition measured after 30 mins by LC-MS/MS analysis
T3 sequence (P20813 whole entry): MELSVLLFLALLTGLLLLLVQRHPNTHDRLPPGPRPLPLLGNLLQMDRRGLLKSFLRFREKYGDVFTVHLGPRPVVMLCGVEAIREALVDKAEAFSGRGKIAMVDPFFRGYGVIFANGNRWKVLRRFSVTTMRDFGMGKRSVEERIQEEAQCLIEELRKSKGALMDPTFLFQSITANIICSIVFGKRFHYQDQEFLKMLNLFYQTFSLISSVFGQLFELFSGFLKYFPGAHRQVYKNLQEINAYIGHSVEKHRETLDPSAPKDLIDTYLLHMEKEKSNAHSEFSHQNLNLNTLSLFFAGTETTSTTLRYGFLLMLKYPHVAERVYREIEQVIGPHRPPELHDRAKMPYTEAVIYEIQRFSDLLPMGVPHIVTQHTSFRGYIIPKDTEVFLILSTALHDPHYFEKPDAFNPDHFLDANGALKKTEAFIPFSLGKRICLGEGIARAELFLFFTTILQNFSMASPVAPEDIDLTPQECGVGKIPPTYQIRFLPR

[5] = biological target: T4, Cytochrome P450 1A2 (Homo sapiens, UniProt P05177); test: Inhibition of CYP1A2 in human liver microsomes assessed as enzyme-mediated metabolite formation using phenacetin as substrate incubated for 5 mins followed by NADPH addition measured after 30 mins by LC-MS/MS analysis
T4 sequence (P05177 whole entry): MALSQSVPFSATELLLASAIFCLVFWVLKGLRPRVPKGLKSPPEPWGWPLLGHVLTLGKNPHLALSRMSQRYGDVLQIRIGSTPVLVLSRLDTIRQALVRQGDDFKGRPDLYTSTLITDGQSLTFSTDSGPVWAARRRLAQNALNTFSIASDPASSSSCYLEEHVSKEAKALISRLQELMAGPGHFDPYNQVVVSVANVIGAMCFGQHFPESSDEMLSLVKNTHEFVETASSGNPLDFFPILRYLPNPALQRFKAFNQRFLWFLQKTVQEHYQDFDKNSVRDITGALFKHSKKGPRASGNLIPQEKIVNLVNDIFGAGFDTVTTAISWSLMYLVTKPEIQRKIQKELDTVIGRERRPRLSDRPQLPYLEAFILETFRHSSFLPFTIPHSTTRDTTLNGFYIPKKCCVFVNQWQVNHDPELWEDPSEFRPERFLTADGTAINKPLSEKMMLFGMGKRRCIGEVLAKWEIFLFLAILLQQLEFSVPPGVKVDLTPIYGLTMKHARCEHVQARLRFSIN

[6] = biological target: T2, CYP3A4; test: Inhibition of CYP3A4 in human liver microsomes assessed as enzyme-mediated metabolite formation at 30 uM using testosterone as substrate preincubated for 20 mins followed by substrate addition measured after 30 mins in presence of NADPH by LC-MS/MS analysis relative to control; set-up: scale not given: the % may be the effect or the level left; settings: probe testosterone, read-out: Activity
[7] = biological target: T2, CYP3A4; test: Inhibition of CYP3A4 in human liver microsomes assessed as enzyme-mediated metabolite formation at 0.1 uM using midazolam as substrate preincubated for 20 mins followed by substrate addition measured after 30 mins in presence of NADPH by LC-MS/MS analysis relative to control; set-up: scale not given: the % may be the effect or the level left; settings: probe midazolam, read-out: Activity
[8] = biological target: T1, CYP2D6; test: Inhibition of CYP2D6 in human liver microsomes assessed as enzyme-mediated metabolite formation at 10 uM using dextromethorphan as substrate preincubated for 20 mins followed by substrate addition measured after 30 mins in presence of NADPH by LC-MS/MS analysis relative to control; set-up: scale not given: the % may be the effect or the level left; settings: probe dextromethorphan, read-out: Activity
[9] = biological target: Cytochrome P450 2C19 (Homo sapiens, UniProt P33261); test: Inhibition of human CYP2C19 using (S)-mephenytoin as substrate incubated for 5 mins followed by NADPH addition measured after 30 mins by LC-MS/MS analysis
Sequence of Cytochrome P450 2C19 (P33261 whole entry): as the sequence (P33261 whole entry) above

[10] = biological target: T2, CYP3A4; test: Inhibition of CYP3A4 in human liver microsomes assessed as enzyme-mediated metabolite formation at 3 uM using midazolam as substrate preincubated for 20 mins followed by substrate addition measured after 30 mins in presence of NADPH by LC-MS/MS analysis relative to control; set-up: scale not given: the % may be the effect or the level left; settings: probe midazolam, read-out: Activity
[11] = biological target: T5, CYP2C8 (Homo sapiens, UniProt P10632); test: Inhibition of CYP2C8 in human liver microsomes assessed as enzyme-mediated metabolite formation at 0.1 uM using paclitaxel as substrate preincubated for 20 mins followed by substrate addition measured after 30 mins in presence of NADPH by LC-MS/MS analysis relative to control; set-up: scale not given: the % may be the effect or the level left; settings: probe paclitaxel, read-out: Activity
T5 sequence (P10632 whole entry): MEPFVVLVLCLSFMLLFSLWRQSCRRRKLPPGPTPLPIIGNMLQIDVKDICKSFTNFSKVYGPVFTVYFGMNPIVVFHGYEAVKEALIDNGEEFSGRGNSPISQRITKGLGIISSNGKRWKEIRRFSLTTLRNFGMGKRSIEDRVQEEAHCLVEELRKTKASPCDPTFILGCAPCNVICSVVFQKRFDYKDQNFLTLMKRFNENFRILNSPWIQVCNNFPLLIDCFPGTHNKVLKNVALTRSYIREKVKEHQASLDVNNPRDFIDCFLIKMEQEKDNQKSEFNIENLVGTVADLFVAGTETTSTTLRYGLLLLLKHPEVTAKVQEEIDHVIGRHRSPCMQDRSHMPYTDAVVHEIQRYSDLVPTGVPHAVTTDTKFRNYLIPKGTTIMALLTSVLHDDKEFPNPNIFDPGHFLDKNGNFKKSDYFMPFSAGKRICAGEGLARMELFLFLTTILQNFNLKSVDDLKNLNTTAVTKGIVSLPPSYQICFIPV

[12] = biological target: T6, CYP2B6 (Homo sapiens, UniProt P20813); test: Inhibition of CYP2B6 in human liver microsomes assessed as enzyme-mediated metabolite formation at 30 uM using bupropion as substrate preincubated for 20 mins followed by substrate addition measured after 30 mins in presence of NADPH by LC-MS/MS analysis relative to control; set-up: scale not given: the % may be the effect or the level left; settings: probe bupropion, read-out: Activity
T6 sequence (P20813 whole entry): T3 sequence (P20813 whole entry)

- activity at 0.5 h, 0.3 µM [1]: 76%
- activity at 0.5 h, 3 µM [2]: 77.4%
- activity at 0.5 h, 3 µM [3]: 67.6%
- IC50 [4]: 6.2 µM
- inhibition (INH) ([4]; human, 0.5 h): Dose-dependent effect
- IC50 [5]: 7.1 µM
- activity at 0.5 h, 30 µM [6]: 62.3%
- activity at 0.5 h, 0.1 µM [7]: 96.3%
- activity at 0.5 h, 10 µM [8]: 99.4%
- IC50 [9]: 5.8 µM
- inhibition (INH) ([9]; human, 0.5 h): Dose-dependent effect
- activity at 0.5 h, 3 µM [10]: 103%
- activity at 0.5 h, 0.1 µM [11]: 83.2%
- activity at 0.5 h, 30 µM [12]: 45.5%
Compound: CCCCCCCC(=O)CCc1ccc(O)c(OC)c1
